What was measured:
[1] = tested on: MDA-MB-231 cells (CD44+ human breast adenocarcinoma cells); test: Chemotactic chamber (Boyden) assay, migration through polycarbonate filters; type: cell-based; conditions: for mean number of migrating cells per six random high powered fields: Table 2; for Migratory Index: Table 3, cells migrating in response to peptide/cells migration in response to LVLDPK; for MI buffer / MI: Table 4; for MI buffer: cells migrating in response to peptide divided by cells migrating in response to buffer; for MI: migratory index
Experimental: Each peak was then tested for mediation of chemotaxis or for its ability to inhibit OPN mediated chemotaxis using the chemotactic assay as follows (see e.g., Weber et al. (1996) Science 271:509-512). Briefly, uncoated polycarbonated filters (pore size […] ) were used to separate the upper and lower chambers of chemotactic wells. 1×10^3 MDA-MB-231 cells (CD44^+human breast adenocarcinoma cells) were added to the upper chamber and incubated in the presence or absence of the indicated 50 pmols peptide. After 4 hours, the filters were removed, fixed in methanol arid stained with hematoxylin and eosin. Cells which have responded to the peptide, migrate to various areas of the lower surface and can be counted microscopically. Each data point is reported as the mean number of migrating cells per random high power field.
Peptide 51 was identified as being chemotactic. The peptide was sequenced using a gas-phase sequenator and determined to have the sequence LVLDPK (SEQ ID NO:1). To confirm that chemotaxis was due to this peptide, a 16 amino acid peptide spanning the chemotactic sequence in OPN was synthesized and tested for its chemotactic properties. The resulting peptide, SP64 has the sequence KFHSHKDKLVLDPKSK (SEQ ID NO:2) and containing the chemotactic sequence from residues 9-14. 2×10^4 MDA-MB-231 cells were assayed for chemotactic response to the indicated peptides as described above. Each data point is reported as the mean number of migrating cells per six random high powered fields ± standard error of the mean. Each experiment was repeated four times.
To test the amino acid specificity for chemotactic response several substitutions were created in the chemotactic sequence and the new peptides tested for their ability to induce chemotaxis. Data are expressed as migratory index (cells migrating in response to peptide/cells migration in response to LVLDPK, SEQ ID NO:1).
(§1) To evaluate the potential of peptide analogues to inhibit OPN induced chemotaxis, 100 nmoles of peptide was added to the lower compartment and the response of these cells to OPN was determined as described. MI(buffer) was calculated by dividing the number of cells migrating in response to peptide by the number of cells migrating in response to buffer. MI(inhibitory) equals the number of cells migrating towards OPN in the presence of buffer divided by the number migrating towards OPN in the presence of peptide.

MDA-MB-231 cells = test: Inhibition of OPN induced chemotaxis in the chemotactic chamber assay; type: cell-based, human; conditions: for MI inhibitory: Table 4, 100 nmoles of peptide, cells migrating towards OPN in presence of buffer divided by number migrating towards OPN in presence of peptide
Experimental: as §1

[2] = tested on: cells recruited into the peritoneum; test: In vivo chemotaxis after injection of peptide into the peritoneal cavity, lavage and flow cytometry; set-up: species or system C57 black mice; conditions: 25 nmols i.p., 6 hours, normalized to PBS-injected mouse, average of 6 mice
Experimental: Since the peptide LVLDPK (SEQ ID NO:1) was chemotactic to tumor cells and macrophages in vitro, we tested whether the peptide was chemotactic in vivo. 25 nmols of the peptide were injected into the peritoneal cavity of C57 black mice. After six hours the cells recruited into the peritoneum were recovered by lavage and identified by flow cytometry. Titration of soluble peptides into the peritoneum induces a cellular infiltrate in a dose dependent manner. The induction ratio is the number of cells of a particular lineage recovered from the peritoneum of a peptide-injected mouse (e.g., 6 hours after injection) normalized for each experiment to the number of cells of the same lineage recovered from the peritoneum of a PBS-injected mouse. Cell numbers for PBS-injected mice ranged from […] to 646,000 cells total; 182,300 to 325,000 CD44^+ cells; 224,000 to 496,000 […] cells; 31,300 to 76,000 B220^+ cells; 18,100 to 21,100 CD3^+ cells), representing the induction of macrophages (Mac-1^+), B cells (B220^+), and T cells (CD3^+). Values represent an average of 6 mice.

| Substance | Migratory Index [1] | MI buffer [1] | MI [1] | MI inhibitory (MDA-MB-231 cells) | chemotactic activity (in words) [1] | other results |
| --- | --- | --- | --- | --- | --- | --- |
| KFHSHKDKLVLDPKSK (OTHER INFORMATION: Description of Artificial Sequence:Synthetic Peptide) [SP64] | 1 | 12 | 1 | 9 |  | mean number of migrating cells per six random high powered fields ([1]; labelled agent in lower chamber, Ab64 in upper chamber): 25 cells per six random high powered fields; mean number of migrating cells per six random high powered fields ([1]; labelled agent in lower chamber, OPN in upper chamber): 66 cells per six random high powered fields; mean number of migrating cells per six random high powered fields ([1]; labelled agent in lower chamber, PBS in upper chamber, 2×10^4 cells): 217 cells per six random high powered fields; mean number of migrating cells per six random high powered fields ([1]; labelled agent in lower chamber, SP64 in upper chamber): 66 cells per six random high powered fields; mean number of migrating cells per six random high powered fields ([1]; labelled agent in lower chamber, pep 51 in upper chamber): 97 cells per six random high powered fields; mean number of migrating cells per six random high powered fields ([1]; labelled agent in upper chamber, PBS in lower chamber): 243 cells per six random high powered fields; chemotactic response of MDA-MB231 (in words) ([1]; p<0.01, 200 ng of bone OPN): stimulated the chemotactic response |
| LVLAPK (OTHER INFORMATION: Description of Artificial Sequence:Synthetic Peptide) [pepI] | 0.1 | 1 | 0.1 | 9 |  |  |
| LLVDPK (OTHER INFORMATION: Description of Artificial Sequence:Synthetic Peptide) |  |  |  |  | chemotactic activity |  |
| LELDPK (OTHER INFORMATION: Description of Artificial Sequence:Synthetic Peptide) [pepH] | 0.3 | 2 | 0.3 | 10 |  |  |
| LVPDSK (OTHER INFORMATION: Description of Artificial Sequence:Synthetic Peptide) [pepC] | 1 | 7 | 1 | 10 |  |  |
| VVLDPK (OTHER INFORMATION: Description of Artificial Sequence:Synthetic Peptide) |  |  |  |  | chemotactic activity |  |
| ILVDPK (OTHER INFORMATION: Description of Artificial Sequence:Synthetic Peptide) |  |  |  |  | chemotactic activity |  |
| LVIDPK (OTHER INFORMATION: Description of Artificial Sequence:Synthetic Peptide) [pepD] | 1 | 11 | 1 | 9 |  |  |
| VDPK (OTHER INFORMATION: Description of Artificial Sequence:Synthetic Peptide) |  |  |  |  | retain chemotactic activity |  |
| LVLDEK (OTHER INFORMATION: Description of Artificial Sequence:Synthetic Peptide) [pepE] | 0.2 | 2 | 0.2 | 10 |  |  |
| ILVVDPK (OTHER INFORMATION: Description of Artificial Sequence:Synthetic Peptide) [pepK′] | 1.0 |  |  |  |  |  |
| VLDSK (OTHER INFORMATION: Description of Artificial Sequence:Synthetic Peptide) |  |  |  |  | retain chemotactic activity |  |
| LVLDP (OTHER INFORMATION: Description of Artificial Sequence:Synthetic Peptide) [pepG] | 0.1 | 0 | 0.1 | 4 |  | inhibition of chemotaxis by peptide (in words) (MDA-MB-231 cells; migratory index against peptide 51): inhibits chemotaxis |
| LVLVPK (OTHER INFORMATION: Description of Artificial Sequence:Synthetic Peptide) [pepA] | 0.2 |  |  |  |  | induction ratio, Total [2]: 1.3; induction ratio, Total CD44 [2]: 1.8; induction ratio, B-lymphocytes ([2]; B220+): 1; induction ratio, T-lymphocytes ([2]; CD3+): 1.1; induction ratio, Monocytes ([2]; Mac-1+): 1.2 |
| LVLDPA (OTHER INFORMATION: Description of Artificial Sequence:Synthetic Peptide) [pepK] | 0.1 |  |  |  |  |  |

Source: patent publication US6818621B2, “Osteopontin-derived chemotactic and inhibitory agents and uses therefor” (Children's Medical Center Corporation, priority 1999, dated 2004)
